Source: patent US7199121B2, “Protein tyrosine phosphatase inhibitor” (Institute of Molecular and Cell Biology, priority 2000, dated 2007)

Test system: Yop
Conditions: for percentage activity of Yop relative to control: 1 μM compound, phosphatase 0.1 nM, pNPP, average of three enzyme preparations ± S.D.

| SMILES | inhibition of Yop (1 μM) [%] | percentage activity of Yop relative to control [%] | PTP inhibition of Yop at neutral pH (neutral pH, results not shown) |
| --- | --- | --- | --- |
| Cn1nc2c(nc1=O)c(=O)n(C)c(=O)n2C [Compound 3, 2,8-dihydro-2,6,8-trimethyl-pyrimido[5,4-e]-1,2,4-triazine-3,5,7(6H)-trione] | ~90 | 10 ± 1.0 | continues to behave as a PTP inhibitor |
| Cn1nc2c(nc1=O)n(C)c(=O)n2C [Compound 4, 2,5,7-trimethyl-2,7-dihydro-5H-imidazo[4,5-e]-1,2,4-triazine-3,6-dione] |  | 95 ± 4.0 |  |
| [Na+].[Na+].[Na+].[O]=[V]([O-])([O-])[O-] [Na3VO4, sodium orthovanadate, reference compound] |  | 14 ± 1.0 |  |
